According to the CheMixHub ionic liquid set:

Assay: xn = mol fraction of the nth substance listed

Cc1ncc(CO)c(CO)c1O.Cl + CCCC[n+]1ccn(C)c1.[Br-] + O
viscosity [mPa·s], 100 kPa
Conditions	x1 = 0.0002684, x2 = 0	x1 = 0.0005421, x2 = 0	x1 = 0.0008084, x2 = 0	x1 = 0.001085, x2 = 0	x1 = 0.001353, x2 = 0	x1 = 0.001621, x2 = 0
293.15 K	1.007	1.012	1.017	1.022	1.027	1.032
298.15 K	0.895	0.9	0.905	0.91	0.915	0.921
303.15 K	0.801	0.806	0.811	0.816	0.821	0.826
308.15 K	0.722	0.727	0.732	0.737	0.741	0.747
313.15 K	0.657	0.662	0.667	0.671	0.676	0.681

CCO + COP(=O)([O-])OC.Cn1cc[n+](C)c1
100 kPa, x2 = 0
Conditions	viscosity [mPa·s]
298.15 K	1.08
308.15 K	0.89
328.15 K	0.646

CCO + CCCCCCCCCCCCCCCC[N+](C)(C)C.[Br-] + O
Conditions	electrical conductivity [S/m]
298.2 K, 101.3 kPa, x2 = 0, x1 = 0.05064	0.00019

CCCCCC[n+]1ccn(C)c1C.O=S(=O)([N-]S(=O)(=O)C(F)(F)F)C(F)(F)F + CCCCCCCCCCCCCC[P+](CCCCCC)(CCCCCC)CCCCCC.O=S(=O)([N-]S(=O)(=O)C(F)(F)F)C(F)(F)F
Conditions	viscosity [mPa·s]
278.15 K, 100 kPa, x1 = 0.6	930

CCO + CS(=O)(=O)[O-].C[N+](C)(CCO)CCO
101 kPa, x2 = 0
Conditions	viscosity [mPa·s]
298.15 K	1.102
303.15 K	1.002
308.15 K	0.915
313.15 K	0.837
318.15 K	0.768
323.15 K	0.706

CCCCCCCCCCCCCC[n+]1ccccc1.O=C([O-])C(O)c1ccccc1 + NCC(=O)NCC(=O)O + O
electrical conductivity [S/m], 101 kPa
Conditions	293.15 K	298.15 K	303.15 K	308.15 K	313.15 K
x1 = 5.26e-06, x2 = 0.0009002	0.00276	0.00323	0.00375	0.00433	0.005
x1 = 6.01e-06, x2 = 0.001799	0.00408	0.00487	0.00569	0.0066	0.0077
x1 = 6.85e-06, x2 = 0	0.00248	0.00278	0.00309	0.0034	0.0037
x1 = 9.97e-06, x2 = 0.0009002	0.00403	0.00465	0.00533	0.0061	0.0069
x1 = 1.185e-05, x2 = 0.001799	0.00561	0.00655	0.0076	0.0088	0.01
x1 = 1.424e-05, x2 = 0	0.00472	0.00529	0.00587	0.0065	0.0071
x1 = 1.486e-05, x2 = 0.0009002	0.0054	0.00621	0.0071	0.008	0.009
x1 = 1.713e-05, x2 = 0.001799	0.00703	0.0082	0.0094	0.0107	0.0122
x1 = 2.084e-05, x2 = 0.0009002	0.00697	0.008	0.0091	0.0102	0.0114
x1 = 2.126e-05, x2 = 0	0.00671	0.0076	0.0084	0.0093	0.0101
x1 = 2.26e-05, x2 = 0.001799	0.0085	0.0098	0.0112	0.0128	0.0144
x1 = 2.537e-05, x2 = 0.0009002	0.0082	0.0094	0.0106	0.012	0.0134
x1 = 2.788e-05, x2 = 0.001799	0.0098	0.0113	0.0129	0.0146	0.0165
x1 = 2.811e-05, x2 = 0	0.0086	0.0097	0.0108	0.0122	0.0131
x1 = 3.117e-05, x2 = 0.0009002	0.0097	0.0111	0.0125	0.014	0.0157
x1 = 3.335e-05, x2 = 0.001799	0.0111	0.0127	0.0145	0.0164	0.0184
x1 = 3.46e-05, x2 = 0	0.0103	0.0116	0.0129	0.0145	0.0157
x1 = 3.679e-05, x2 = 0.0009002	0.011	0.0125	0.0141	0.0159	0.0178
x1 = 3.864e-05, x2 = 0.001799	0.0122	0.014	0.0159	0.018	0.0203
x1 = 4.108e-05, x2 = 0	0.0117	0.0131	0.0146	0.0161	0.0179
x1 = 4.386e-05, x2 = 0.0009001	0.0123	0.014	0.0157	0.0177	0.0199
x1 = 4.574e-05, x2 = 0.001799	0.0134	0.0153	0.0174	0.0197	0.0222
x1 = 4.811e-05, x2 = 0	0.0129	0.0144	0.0161	0.0179	0.0198
x1 = 5.11e-05, x2 = 0.0009001	0.0133	0.0151	0.017	0.0192	0.0215
x1 = 5.321e-05, x2 = 0.001799	0.0145	0.0165	0.0187	0.0213	0.024
x1 = 5.388e-05, x2 = 0	0.0137	0.0154	0.0172	0.0191	0.0211
x1 = 5.781e-05, x2 = 0.0009001	0.0143	0.0162	0.0182	0.0205	0.023
x1 = 5.982e-05, x2 = 0	0.0145	0.0163	0.0182	0.0202	0.0224
x1 = 6.069e-05, x2 = 0.001799	0.0155	0.0177	0.02	0.0227	0.0254
x1 = 6.433e-05, x2 = 0.0009001	0.0152	0.0172	0.0193	0.0218	0.0244
x1 = 6.559e-05, x2 = 0	0.0153	0.0172	0.0192	0.0213	0.0236
x1 = 6.816e-05, x2 = 0.001799	0.0165	0.0187	0.0213	0.024	0.027
x1 = 7.081e-05, x2 = 0	0.016	0.018	0.02	0.0223	0.0246
x1 = 7.104e-05, x2 = 0.0009001	0.0161	0.0182	0.0204	0.023	0.0258
x1 = 7.454e-05, x2 = 0.001799	0.0173	0.0197	0.0222	0.0252	0.0283
x1 = 7.604e-05, x2 = 0	0.0167	0.0187	0.0209	0.0232	0.0258
x1 = 7.81e-05, x2 = 0.0009001	0.0171	0.0193	0.0217	0.0244	0.0273
x1 = 8.072e-05, x2 = 0	0.0173	0.0194	0.0217	0.0241	0.0266
x1 = 8.128e-05, x2 = 0.001799	0.0182	0.0207	0.0233	0.0265	0.0298
